Data from patent US10682399B2, “Target peptides for colorectal cancer therapy and diagnostics” (University of Virginia Patent Foundation, priority 2012, dated 2020).
Non-standard residues stand in square brackets, D forms with d. No end group written: not given here. pS = N[C@@H](COP(=O)(O)O)C(=O)O

Key:
[1] = system: Tumor infiltrating lymphocytes (TILs); test: TIL responses to phosphopeptides, multiplexed intracellular cytokine staining for IL-2, IFNγ, TNFα; assay type: cell-based, human
Protocol: Tumor infiltrating lymphocytes (“TILs”) from the same tumors, were extracted and expanded, and their responses to the phosphopeptides assessed using multiplexed intracellular cytokine staining for IL-2, IFNγ, and TNFα as depicted in FIG. 1A.
Tumor infiltrating lymphocytes (TILs) were also taken from the patient tumors at resection and expanded, using high-dose IL-2 (6000 IU/ml). TIL responses to the phosphopeptides were then tested using ICS. TILs were stimulated with phosphopeptide and cultured for 7 days before being re-stimulated in an intracellular cytokine staining assay assessing production of tumor necrosis factor alpha (TNFα), interferon gamma (IFNγ) and interleukin-2 (IL-2). The results are depicted in FIG. 6.

memory T cells = test: Phosphopeptide-specific memory T cell response in a patient; assay type: cell-based, human
Source text: The phrase “capable of inducing a target peptide-specific memory T cell response in a patient” as used herein relates to eliciting a response from memory T cells (also referred to as “antigen-experienced T cell”), which are a subset of infection- and cancer-fighting T cells that have previously encountered and responded to their cognate antigen. Such T cells can recognize foreign invaders, such as bacteria or viruses, as well as cancer cells. Memory T cells have become “experienced” by having encountered antigen during a prior infection, having encountered cancer, or via previous vaccination. At a second encounter with the cognate antigen (e.g., by way of an initial inoculation with a target peptide of the presently disclosed subject matter), memory T cells can reproduce to mount a faster and stronger immune response than the first time the immune system responded to the invader (e.g., through the body's own consciously unperceived recognition of a target peptide being associated with diseased tissue). This behavior can be assayed in T lymphocyte proliferation assays, which can reveal exposure to specific antigens.
Tensin 3 (TNS3) plays a role in actin remodeling. It is involved in the dissociation of the integrin-tensin-actin complex. EGF activates TNS4 and down-regulates TNS3 which results in capping the tail of ITGB1. […]

Healthy donor PBMC = test: Cultured IFNγ ELISpot on day 7, healthy donor PBMC; assay type: cell-based, human; conditions: day 7, HLA-matched healthy donors
Protocol: Healthy donor PBMC responses to the CRC tumor-specific phosphopeptides were assessed using a cultured IFNγ ELISpot on day 7.
Generally, quantification of T cell IFNγ production in response to peptides was performed by ELISpot as per manufacturer's instructions. In brief, ELISpotPRO wells, pre-coated with IFNγ monoclonal antibody mAb 1-D1K (MabTech, product code: 3420-2APW-2), were washed four times with sterile PBS and blocked for 30 minutes with 200 μl 10% RPMI 1640 after which the blocking medium was removed.
For ELISpot analysis, PBMCs and CD8+ T cells were isolated fresh from healthy donors and patients. 1×10^6 PBMCs were isolated from both disease patients and healthy donors and re-suspended in AIM-V media (10% human AB serum) in a 96 well plate. Peptide or phosphopeptides were added individually at 10 μg/ml and placed at 37° C. in CO2 incubator for 7 days. Cells were then harvested, washed four times, and re-challenged with either phosphopeptides, peptides, anti CD3 (OKT3, 100 ng/ml, Mabtech) as per manufacturer's instructions. Individual cytokine-producing cells were identified as dark spots after a 15 minute reaction with 5-bromo-4-chloro-3-indolyl phosphate and NBT by means of an alkaline phosphatase conjugate substrate (Mabtech).

CRC cell line SW620 = test: Killing of CRC cell line by phosphopeptide-specific T cell lines; assay type: cell-based, human; conditions: T cell lines established against the phosphopeptide
Source text: T cells lines were established against some of these key phosphopeptide targets.

xenograft tumor = test: Xenograft tumor model system; assay type: in vivo
Source text: (§1) IRS proteins are adapter proteins that link signaling from upstream activators to multiple downstream effectors to modulate normal growth, metabolism, survival and differentiation.

[2] = system: human melanoma and breast tumors; test: Recognition and killing of tumors in vitro by phosphopeptide-specific CD8+ T cells; assay type: cell-based
Source text: as §1

CD8+ T cells = test: Immunization of HLA-A2 transgenic mice with phosphopeptide; assay type: in vivo, mouse; conditions: immunization with the phosphopeptide
Protocol: In some embodiments, the immunogenicity of a target peptide is measured using transgenic mice expressing human MHC class I genes. For example, “ADD Tg mice” express an interspecies hybrid class I MHC gene, AAD, which contains the α-1 and α-2 domains of the human HLA-A2.1 gene and the α-3 transmembrane and cytoplasmic domains of the mouse H-2Dd gene, under the transcriptional control of the human HLA-A2.1 promoter. Immunodetection of the HLA-A2.1 recombinant transgene established that expression was at equivalent levels to endogenous mouse class I molecules. The mouse α-3 domain expression enhances the immune response in this system. Compared to unmodified HLA-A2.1, the chimeric HLA-A2.1/H2-Dd MHC Class I molecule mediates efficient positive selection of mouse T cells to provide a more complete T cell repertoire capable of recognizing peptides presented by HLA-A2.1 Class I molecules.
The peptide epitopes presented and recognized by mouse T cells in the context of the HLA-A2.1/H2-Dd class I molecule are the same as those presented in HLA-A2.1^+ humans. […]
In some embodiments, the immunogenicity of a modified phosphopeptide is determined by the degree of Interferon gamma (IFNγ) and/or tumor necrosis factor-alpha (TNF-α) production of T cells from ADD Tg mice immunized with the target peptide, e.g., by immunization with target peptide pulsed bone marrow derived dendritic cells. […]

For “RPRARsVDAL (RPRAR[pS]VDAL; listed as Homo sapiens) [LISCH7]”, the TIL response ([1]; TILs from the tumor from which the phosphopeptides were identified, equivalent to the EBV peptide response) was ~2 % of TILs.

“VMIGsPKKV (VMIG[pS]PKKV; listed as Homo sapiens) [Tensin 3 phosphopeptide]” was tested, and the “Phosphopeptide-specific memory T cell response” value (memory T cells) was “capable of inducing a strong phosphopeptide-specific memory T cell response”.

With “LPIFSRLsI (LPIFSRL[pS]I; listed as Homo sapiens) [ZFP36L2]” the “Healthy donor PBMC responses, IFNγ ELISpot” value (Healthy donor PBMC) was “many responses were seen” and the “Killing of SW620 by phosphopeptide-specific T cell line” value (CRC cell line SW620) was “specifically kill”.

For “RTMsEAALVRK (RTM[pS]EAALVRK; listed as Homo sapiens) [RASSF6]”, the “TIL responses to phosphopeptide (IL-2, IFNγ, TNFα)” value ([1]; TILs extracted from tumors and expanded) was “responses were seen”.

With “RTHsLLLLL (RTH[pS]LLLLL; listed as Homo sapiens) [RNASE4]” the “Healthy donor PBMC responses, IFNγ ELISpot” value (Healthy donor PBMC) was “many responses were seen”.

For “RVAsPTSGV (RVA[pS]PTSGV; listed as Homo sapiens) [IRS2 (A2), HLA-A*0201 phosphopeptide from insulin receptor substrate 2]”, the “Tumor growth control by the T cells” value (xenograft tumor) was “controlled tumor growth”, the “Recognition and killing of human melanoma and breast tumors by the T cells” value [2] was “capable of recognizing and killing” and the “Generation of phosphopeptide-specific CD8+ T cells” value (CD8+ T cells) was “can be generated”. For the same substance, the “Killing of SW620 by phosphopeptide-specific T cell line” value (CRC cell line SW620) was “specifically kill”.
